Data as given in the supplement of paper PMC10627819.

Columns and labels:
Conditions in all cases: main component drawn
S. aureus DSM 20231 [1] = test: fitness (endpoint OD595 vs no drug) (fraction); higher = more growth
In short: (§1)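 In 384-well plates at 37 °C, cultures began at OD595 0.01 in 30 µl, with 55 µl used for S. pneumoniae. OD595 readings every 30 min for 14 h were corrected by the first reading. Fitness divides the stationary-phase transition optical density by the robust mean of no-drug control wells. The result is capped at 1.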

S. aureus Newman [2] = test: as above
In short: as §1

B. subtilis 168 = test: Bliss interaction score (quartile over a dose matrix) (fitness difference); higher = more antagonism (negative = synergy)
In short: (§2)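 The Bliss score is observed minus expected fitness, where expected fitness is the product of the single-drug fitness values inferred from the combination data. Fitness is the OD595 at the onset of stationary phase over the plate's robust no-drug mean, capped at 1. Scores are summarised by quartiles over technical, biological and donor/recipient replicates.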

S. pneumoniae D39V = test: as above
In short: as §2

S. aureus DSM 20231 [3] = test: as above
In short: as §2

S. aureus Newman [4] = test: as above
In short: as §2

[5] = first compound 0.0156 µg/mL, partner 0.1562 µg/mL
[6] = first compound 0.0156 µg/mL, partner 0.3125 µg/mL
[7] = first compound 0.0156 µg/mL, partner 0.625 µg/mL
[8] = first compound 0.0312 µg/mL, partner 0.1562 µg/mL
[9] = first compound 0.0312 µg/mL, partner 0.3125 µg/mL
[10] = first compound 0.0312 µg/mL, partner 0.625 µg/mL
[11] = first compound 0.0625 µg/mL, partner 0.1562 µg/mL
[12] = first compound 0.0625 µg/mL, partner 0.3125 µg/mL
[13] = first compound 1.25 µg/mL, partner 0.1562 µg/mL
[14] = first compound 1.25 µg/mL, partner 0.3125 µg/mL
[15] = first compound 1.25 µg/mL, partner 0.625 µg/mL
[16] = first compound 2.5 µg/mL, partner 0.1562 µg/mL
[17] = first compound 2.5 µg/mL, partner 0.3125 µg/mL
[18] = first compound 2.5 µg/mL, partner 0.625 µg/mL
[19] = first compound 5 µg/mL, partner 0.1562 µg/mL
[20] = first compound 5 µg/mL, partner 0.3125 µg/mL
[21] = first compound 5 µg/mL, partner 0.625 µg/mL
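Throughout, for Bliss interaction score (quartile over a dose matrix): first quartile when negative (synergy) and third quartile when positive (antagonism).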
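Throughout, for fitness (endpoint OD595 vs no drug): OD595 on entry to stationary phase over no-drug wells; at most 1.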

Cc1onc(-c2ccccc2)c1C(=O)N[C@@H]1C(=O)N2[C@@H]1SC(C)(C)[C@@H]2C(=O)O [Oxacillin] + CCCCCCCCCC(=O)N[C@@H]1[C@H]([C@@H]([C@H](O[C@H]1OC2=C3C=C4C=C2OC5=C(C=C(C=C5)[C@H]([C@H]6C(=O)N[C@@H](C7=C(C(=CC(=C7)O)OC8[C@H]([C@H]([C@@H]([C@H](O8)CO)O)O)O)C9=C(C=CC(=C9)[C@H](C(=O)N6)NC(=O)[C@@H]4NC(=O)[C@@H]1C2=CC(=CC(=C2)OC2=C(C=CC(=C2)[C@H](C(=O)N[C@H](CC2=CC(=C(O3)C=C2)Cl)C(=O)N1)N)O)O)O)C(=O)O)O[C@H]1[C@@H]([C@H]([C@@H]([C@H](O1)CO)O)O)NC(=O)C)Cl)CO)O)O [Teicoplanin]
fitness (S. aureus DSM 20231 [1]; [5]): 0.833 | fitness (S. aureus DSM 20231 [1]; [6]): 0.877 | fitness (S. aureus DSM 20231 [1]; [7]): 0.813 | fitness (S. aureus DSM 20231 [1]; [8]): 0.743 | fitness (S. aureus DSM 20231 [1]; [9]): 0.811 | fitness (S. aureus DSM 20231 [1]; [10]): 0.693 | fitness (S. aureus DSM 20231 [1]; [11]): 0.492 | fitness (S. aureus DSM 20231 [1]; [12]): 0.485 | fitness (S. aureus DSM 20231 [1]; first compound 0.0625 µg/mL, partner 0.625 µg/mL): 0.541 | fitness (S. aureus Newman [2]; [5]): 0.746 | fitness (S. aureus Newman [2]; [6]): 0.732 | fitness (S. aureus Newman [2]; first compound 0.0156 µg/mL, partner 0.62 µg/mL, one replicate): 0.603 | fitness (S. aureus Newman [2]; [7]): 0.721 | fitness (S. aureus Newman [2]; first compound 0.0156 µg/mL, partner 1.24 µg/mL, one replicate): 0.668 | fitness (S. aureus Newman [2]; first compound 0.0156 µg/mL, partner 2.48 µg/mL, one replicate): 0.429 | fitness (S. aureus Newman [2]; [8]): 0.702 | fitness (S. aureus Newman [2]; [9]): 0.708 | fitness (S. aureus Newman [2]; first compound 0.0312 µg/mL, partner 0.62 µg/mL, one replicate): 0.638 | fitness (S. aureus Newman [2]; [10]): 0.65 | fitness (S. aureus Newman [2]; first compound 0.0312 µg/mL, partner 1.24 µg/mL, one replicate): 0.596 | fitness (S. aureus Newman [2]; first compound 0.0312 µg/mL, partner 2.48 µg/mL, one replicate): 0.16 | fitness (S. aureus Newman [2]; [11]): 0.595 | fitness (S. aureus Newman [2]; [12]): 0.596 | fitness (S. aureus Newman [2]; first compound 0.0625 µg/mL, partner 0.62 µg/mL, one replicate): 0.534 | fitness (S. aureus Newman [2]; first compound 0.0625 µg/mL, partner 1.24 µg/mL, one replicate): 0.351 | fitness (S. aureus Newman [2]; first compound 0.0625 µg/mL, partner 2.48 µg/mL, one replicate): 0.143 | Bliss interaction score (B. subtilis 168): -0.0735 | Bliss interaction score (S. pneumoniae D39V): -0.0582 | Bliss interaction score (S. aureus DSM 20231 [3]): 0.062 | Bliss interaction score (S. aureus Newman [4]): -0.0741

C[n+]1ccc(-c2cc[n+](C)cc2)cc1 [Paraquat] + CCCCCCCCCC(=O)N[C@@H]1[C@H]([C@@H]([C@H](O[C@H]1OC2=C3C=C4C=C2OC5=C(C=C(C=C5)[C@H]([C@H]6C(=O)N[C@@H](C7=C(C(=CC(=C7)O)OC8[C@H]([C@H]([C@@H]([C@H](O8)CO)O)O)O)C9=C(C=CC(=C9)[C@H](C(=O)N6)NC(=O)[C@@H]4NC(=O)[C@@H]1C2=CC(=CC(=C2)OC2=C(C=CC(=C2)[C@H](C(=O)N[C@H](CC2=CC(=C(O3)C=C2)Cl)C(=O)N1)N)O)O)O)C(=O)O)O[C@H]1[C@@H]([C@H]([C@@H]([C@H](O1)CO)O)O)NC(=O)C)Cl)CO)O)O [Teicoplanin]
fitness (S. aureus DSM 20231 [1]; [13]): 0.957 | fitness (S. aureus DSM 20231 [1]; [14]): 0.99 | fitness (S. aureus DSM 20231 [1]; [15]): ≥ 1 | fitness (S. aureus DSM 20231 [1]; [16]): 0.954 | fitness (S. aureus DSM 20231 [1]; [17]): ≥ 1 | fitness (S. aureus DSM 20231 [1]; [18]): ≥ 1 | fitness (S. aureus DSM 20231 [1]; [19]): 0.967 | fitness (S. aureus DSM 20231 [1]; [20]): ≥ 1 | fitness (S. aureus DSM 20231 [1]; [21]): ≥ 1 | fitness (S. aureus Newman [2]; [13]): ≥ 1 | fitness (S. aureus Newman [2]; [14]): ≥ 1 | fitness (S. aureus Newman [2]; first compound 1.25 µg/mL, partner 0.62 µg/mL, one replicate): 0.795 | fitness (S. aureus Newman [2]; [15]): 0.912 | fitness (S. aureus Newman [2]; first compound 1.25 µg/mL, partner 1.24 µg/mL, one replicate): 0.737 | fitness (S. aureus Newman [2]; first compound 1.25 µg/mL, partner 2.48 µg/mL, one replicate): 0.336 | fitness (S. aureus Newman [2]; [16]): ≥ 1 | fitness (S. aureus Newman [2]; [17]): 0.98 | fitness (S. aureus Newman [2]; first compound 2.5 µg/mL, partner 0.62 µg/mL, one replicate): 0.782 | fitness (S. aureus Newman [2]; [18]): 0.87 | fitness (S. aureus Newman [2]; first compound 2.5 µg/mL, partner 1.24 µg/mL, one replicate): 0.745 | fitness (S. aureus Newman [2]; first compound 2.5 µg/mL, partner 2.48 µg/mL, one replicate): 0.402 | fitness (S. aureus Newman [2]; [19]): ≥ 1 | fitness (S. aureus Newman [2]; [20]): 0.962 | fitness (S. aureus Newman [2]; first compound 5 µg/mL, partner 0.62 µg/mL, one replicate): 0.775 | fitness (S. aureus Newman [2]; [21]): 0.846 | fitness (S. aureus Newman [2]; first compound 5 µg/mL, partner 1.24 µg/mL, one replicate): 0.761 | fitness (S. aureus Newman [2]; first compound 5 µg/mL, partner 2.48 µg/mL, one replicate): 0.117 | Bliss interaction score (B. subtilis 168): -0.044 | Bliss interaction score (S. pneumoniae D39V): 0.0634 | Bliss interaction score (S. aureus DSM 20231 [3]): 0.0665 | Bliss interaction score (S. aureus Newman [4]): 0.0904
